Experimental data: PMC8625052, “The Antiarrhythmic Activity of Novel Pyrrolidin-2-one Derivative S-75 in Adrenaline-Induced Arrhythmia” (Pharmaceuticals, 2021)

Assays:
[1] = test system: post-reperfusion arrhythmia of isolated rat heart; assay: Antiarrhythmic activity in the post-reperfusion model in isolated rat heart; settings: reperfusion; for Extrasystoles (%) / Fibrillations (%) / Tachycardia (%): % occurrence; for Arrhythmia Severity Index: Bernauer scale
Method: Hearts form Wistar rats were isolated and immersed in Chenoweth–Koelle solution (120 mM NaCl; 5 mM KCl; 2.2 mM MgCl2; […]; 2.4 mM CaCl2; 10 mM glucose). Hearts were perfused according to the Langendorff model under a constant pressure of 70 cm H2O (6.87 kPa) with a solution at 37 °C, pH 7.4, constantly oxygenated (O2/CO2, 19:1) using the MyoHEART Langendorff System-900MH (Danish Myo Technology, Hinnerup, Denmark), which monitored the ECG. After 20 min stabilization period, acute myocardial ischemia was induced locally by installing a clamp on the left coronary artery (ischemic period). After 15 min, the clamp was removed, and ECG changes were monitored for 30 min (reperfusion period). The tested compound was added to the perfusion solution 15 min before coronary artery clamping. The point scale described by Bernauer was used to assess the antiarrhythmic activity in this arrhythmia model. The occurrence of a specific type of heart rhythm disturbance during the reperfusion period was scored according to the following scale: • occurrence of less than 10 extrasystoles—1 point; • occurrence of more than 10 extrasystoles—2 points; • presence of ventricular tachycardia—3 points; • presence of fibrillation—4 points.

[2] = test system: adrenaline-induced arrhythmia in rats; assay: Therapeutic antiarrhythmic activity in adrenaline-induced arrhythmia; assay type: in vivo, rat
Method: The experiments were carried out according to the method described by Szekeres and Papp. The heart rhythm disturbances were evoked by intravenous administration of adrenaline (20 µg/kg) to anesthetized rats (thiopental, 75 mg/kg). The tested compound was administered iv immediately after the injection of adrenaline, at dose 5 mg/kg. The ECG was recorded during the first 2 min and in the 5th, 10th, and 15th min after the adrenaline injection. […] The criterion of antiarrhythmic activity was the decrease or complete absence of extrasystoles, atrioventricular blocks and bradycardia in the ECG recording in comparison with the control group.

[3] = test system: adrenaline-induced arrhythmia in rats; assay: Prophylactic antiarrhythmic activity in adrenaline-induced arrhythmia; assay type: in vivo, rat
[4] = molecular target: Ca2+ channel (L, verapamil site); assay: Radioligand binding assay for Ca2+ channel ([3H]-D888); set-up: species or system rat; settings: rat cortex tissue; [3H]-D888
Method: The radioligand binding studies for K^+ and Ca^2+ channels were performed commercially by Eurofins Cerep (Celle l’Evescault, France) using testing procedures described elsewhere. […]

[5] = test system: aconitine-induced arrhythmia in rats; assay: Prophylactic antiarrhythmic activity in aconitine-induced arrhythmia; assay type: in vivo, rat; settings: rat, in vivo, 5 mg/kg
[6] = 5 mg/kg iv immediately after adrenaline, % occurrence
[7] = adrenaline 20 μg/kg iv, dose 0.25 mg/kg iv 15 min before, % occurrence

CCCCc1oc2ccccc2c1C(=O)c1cc(I)c(OCCN(CC)CC)c(I)c1 [Amiodarone]
Extrasystoles (%) ([1]; concentration 10^−9 M): 100%
Fibrillations (%) ([1]; concentration 10^−9 M): 66.7%
Tachycardia (%) ([1]; concentration 10^−9 M): 100%
Arrhythmia Severity Index ([1]; concentration 10^−9 M): 7.7

COc1ccccc1OCCNCC(O)COc1cccc2[nH]c3ccccc3c12 (stereo not shown) [Carvedilol, reference compound]
decrease of the number of adrenaline-induced extrasystoles ([2]; 5 mg/kg iv immediately after adrenaline 20 µg/kg, compared to the vehicle-treated group): 95.2%
Blocks (%) [2, 6]: 83.3%
Mortality (%) [2, 6]: 16.7%
ED50 ([3]; Rattus norvegicus, prophylactic, iv 15 min before adrenaline 20 μg/kg, Litchfield and Wilcoxon, limits in brackets, read-out: ED50 (a dose producing a 50% inhibition of ventricular contractions)): 0.36 mg/kg
Blocks (%) [3, 7]: 100%
Bradycardia (%) [3, 7]: 16.6%
Extrasystoles (%) [3, 7]: 100%
Mortality (%) [3, 7]: 66.7%

COc1ccc(CCN(C)CCCC(C#N)(c2cc(OC)c(OC)c(OC)c2)C(C)C)cc1OC [D-600, reference compound]
IC50 [4]: 0.037 µM

CCCNCC(O)COc1ccccc1C(=O)CCc1ccccc1 (stereo not shown) [Propafenone, reference compound]
Blocks (%) [5]: 83.3%
Bradycardia (%) [5]: 100%
Extrasystoles (%) [5]: 66.7%
Fibrillations (%) [5]: 33.3%
Mortality (%) [5]: 16.6%
Extrasystoles (%) ([1]; concentration 10^−11 M): 100%
Fibrillations (%) ([1]; concentration 10^−11 M): 33.3%
Tachycardia (%) ([1]; concentration 10^−11 M): 66.7%
Arrhythmia Severity Index ([1]; concentration 10^−11 M): 6.7
